Data from ChEMBL document CHEMBL1143211, “Inhibitors of proteases and amide hydrolases that employ an alpha-ketoheterocycle as a key enabling functionality” (Bioorg Med Chem, 2008).
Values belong to the molecule of their own block, whether it stands above or below them.

Legend:
[1] = Selectivity for rat FAAH over triacylglycerol hydrolase
[2] = Selectivity for rat FAAH over monoacylglycerol lipase
[3] = Selectivity for rat FAAH over carboxylesterase 1 lipase
[4] = Selectivity for rat FAAH over lipoprotein lipase
[5] = Selectivity for human beta-tryptase over kallikrein
[6] = Selectivity for human beta-tryptase over uPA
[7] = Oral bioavailability in rat; assay type: ADME, organism-based; conditions: in vivo
[8] = Selectivity for human beta-tryptase over plasmin
[9] = Inhibition of human beta-tryptase
Homo sapiens [10] = species: Homo sapiens; experiment: Selectivity for human beta-tryptase over human alpha thrombin
[11] = Selectivity for human beta-tryptase over trypsin
Trypsin = Trypsin (Homo sapiens, UniProt P07477+P07478+P35030); experiment: Inhibition of human trypsin at 100 uM; assay type: protein assay
Hamster = experiment: Efficacy in po dosed hamster acute lung injury model; assay type: functional; conditions: Cricetinae
[12] = Oral bioavailability in rat at 3 mg/kg; assay type: ADME, organism-based; conditions: in vivo
[13] = Tmax in rat at 3 mg/kg, po; assay type: ADME, organism-based; design: dose 3 mg/kg, route oral; conditions: in vivo
Proline iminopeptidase = Proline iminopeptidase (Serratia marcescens, UniProt O32449); experiment: Inhibition of Serratia marcescens prolyl aminopeptidase
[14] = Selectivity for human neutrophil elastase over cathepsinn G
[15] = Selectivity for human neutrophil elastase over trypsin
[16] = Selectivity for human neutrophil elastase over chymotrypsin
[17] = Inhibition of Trypanosoma cruzi prolyl endopeptidase Tc80
Beta-lactamase = Beta-lactamase (Enterobacter cloacae, UniProt P05364); experiment: Inhibition of Enterobacter cloacae beta lactamase
[18] = Selectivity for human alpha-thrombin over factor 10a
Homo sapiens [19] = species: Homo sapiens; experiment: Selectivity for human alpha-thrombin over human trypsin
[20] = molecular target: T1, Trifunctional purine biosynthetic protein adenosine-3 (Homo sapiens, UniProt P22102); experiment: Inhibition of human glycinamide ribonucleotide transformylase
T1 sequence (P22102 whole entry): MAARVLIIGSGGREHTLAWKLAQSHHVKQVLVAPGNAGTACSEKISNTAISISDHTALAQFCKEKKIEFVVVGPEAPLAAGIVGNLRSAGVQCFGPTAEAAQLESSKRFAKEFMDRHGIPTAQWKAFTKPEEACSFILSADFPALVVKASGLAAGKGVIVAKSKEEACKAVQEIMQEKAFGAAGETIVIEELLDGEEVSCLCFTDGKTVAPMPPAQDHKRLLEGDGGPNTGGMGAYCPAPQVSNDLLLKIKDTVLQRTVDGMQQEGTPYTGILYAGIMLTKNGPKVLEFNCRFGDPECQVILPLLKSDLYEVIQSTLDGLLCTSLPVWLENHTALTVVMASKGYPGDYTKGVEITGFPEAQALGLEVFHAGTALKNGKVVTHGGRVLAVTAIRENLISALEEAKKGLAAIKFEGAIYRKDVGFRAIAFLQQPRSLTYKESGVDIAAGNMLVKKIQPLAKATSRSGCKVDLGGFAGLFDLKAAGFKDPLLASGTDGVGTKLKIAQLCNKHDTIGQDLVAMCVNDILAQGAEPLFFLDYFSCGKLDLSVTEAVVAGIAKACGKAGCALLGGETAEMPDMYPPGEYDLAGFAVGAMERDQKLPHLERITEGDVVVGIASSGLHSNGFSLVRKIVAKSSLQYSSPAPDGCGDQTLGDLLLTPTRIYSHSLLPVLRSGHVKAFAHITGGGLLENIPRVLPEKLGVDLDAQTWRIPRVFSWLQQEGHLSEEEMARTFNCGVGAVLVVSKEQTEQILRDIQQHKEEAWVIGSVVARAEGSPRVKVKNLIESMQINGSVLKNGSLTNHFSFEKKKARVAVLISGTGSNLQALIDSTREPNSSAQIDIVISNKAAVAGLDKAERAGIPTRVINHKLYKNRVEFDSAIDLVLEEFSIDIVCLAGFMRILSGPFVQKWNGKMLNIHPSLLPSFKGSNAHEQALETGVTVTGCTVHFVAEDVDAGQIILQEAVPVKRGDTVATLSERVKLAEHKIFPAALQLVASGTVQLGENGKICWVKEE

[21] = Selectivity for human alpha-thrombin over tissue plasminogen activator
[22] = Selectivity for human alpha-thrombin over plasmin
[23] = Selectivity for human alpha-thrombin over uPA
Complement factor B = Complement factor B (Homo sapiens, UniProt P00751); experiment: Inhibition of C3 convertase
Coagulation factor X = Coagulation factor X (Homo sapiens, UniProt P00742); experiment: Inhibition of human factor 10a
Plasminogen = Plasminogen (Homo sapiens, UniProt P00747); experiment: Inhibition of plasmin
[24] = molecular target: Tissue-type plasminogen activator (Homo sapiens, UniProt P00750); experiment: Inhibition of tPA
Plasma kallikrein = Plasma kallikrein (Homo sapiens, UniProt P03952); experiment: Inhibition of kallikrein
[25] = Inhibition of Staphylococcus aureus methionine aminopeptidase
Platelet = experiment: Antithrombotic activity assessed as inhibition of alpha-thrombin-induced human platelet aggregation; assay type: functional, cell-based
[26] = Selectivity for human alpha-thrombin over bovine trypsin
[27] = molecular target: T2, Fatty-acid amide hydrolase 1 (Rattus norvegicus, UniProt P97612)
T2 sequence (P97612 whole entry): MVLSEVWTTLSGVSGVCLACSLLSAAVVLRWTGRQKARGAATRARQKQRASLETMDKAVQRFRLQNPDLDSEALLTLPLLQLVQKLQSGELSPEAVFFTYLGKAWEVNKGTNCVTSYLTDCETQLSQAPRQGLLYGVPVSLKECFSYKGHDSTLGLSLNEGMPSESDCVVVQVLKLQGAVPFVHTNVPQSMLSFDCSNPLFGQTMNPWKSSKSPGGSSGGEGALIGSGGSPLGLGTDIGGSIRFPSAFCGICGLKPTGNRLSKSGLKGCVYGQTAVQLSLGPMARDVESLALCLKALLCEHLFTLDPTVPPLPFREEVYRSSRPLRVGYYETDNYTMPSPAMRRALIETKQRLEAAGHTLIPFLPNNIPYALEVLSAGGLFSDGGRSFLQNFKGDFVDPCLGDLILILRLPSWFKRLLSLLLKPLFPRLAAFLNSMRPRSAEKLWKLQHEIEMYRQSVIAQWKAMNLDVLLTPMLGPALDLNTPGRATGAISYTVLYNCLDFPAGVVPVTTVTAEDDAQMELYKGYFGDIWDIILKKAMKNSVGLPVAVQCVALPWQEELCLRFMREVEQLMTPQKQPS

Coagulation factor X, sequence (P00742 41-179 limits assumed): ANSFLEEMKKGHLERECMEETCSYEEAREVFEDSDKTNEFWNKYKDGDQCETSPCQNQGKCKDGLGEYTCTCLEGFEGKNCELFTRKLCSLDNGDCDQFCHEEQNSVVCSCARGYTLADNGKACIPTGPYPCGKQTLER
Coagulation factor X, sequence (P00742 235-488 limits assumed): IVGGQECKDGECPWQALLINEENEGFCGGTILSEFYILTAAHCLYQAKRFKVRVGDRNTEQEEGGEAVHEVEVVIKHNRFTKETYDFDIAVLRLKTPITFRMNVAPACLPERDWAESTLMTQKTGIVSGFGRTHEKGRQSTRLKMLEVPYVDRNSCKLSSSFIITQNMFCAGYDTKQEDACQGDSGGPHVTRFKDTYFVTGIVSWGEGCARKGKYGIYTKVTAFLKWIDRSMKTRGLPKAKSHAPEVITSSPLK
Tissue-type plasminogen activator, sequence (P00750 whole entry): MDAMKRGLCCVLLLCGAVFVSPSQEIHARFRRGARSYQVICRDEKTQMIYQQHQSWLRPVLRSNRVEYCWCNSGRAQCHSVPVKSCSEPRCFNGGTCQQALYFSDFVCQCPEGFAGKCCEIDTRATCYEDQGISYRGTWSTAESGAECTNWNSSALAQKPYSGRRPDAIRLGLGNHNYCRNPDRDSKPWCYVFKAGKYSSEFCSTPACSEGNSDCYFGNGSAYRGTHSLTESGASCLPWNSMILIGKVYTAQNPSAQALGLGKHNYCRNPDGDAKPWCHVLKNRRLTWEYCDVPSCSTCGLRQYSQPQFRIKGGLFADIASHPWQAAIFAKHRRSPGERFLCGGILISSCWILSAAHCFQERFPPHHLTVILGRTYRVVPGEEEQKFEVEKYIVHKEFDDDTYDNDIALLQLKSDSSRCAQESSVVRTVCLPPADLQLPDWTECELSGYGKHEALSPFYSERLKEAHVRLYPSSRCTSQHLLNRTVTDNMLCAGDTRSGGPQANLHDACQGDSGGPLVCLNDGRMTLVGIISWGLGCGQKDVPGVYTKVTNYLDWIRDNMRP
Complement factor B, sequence (P00751 whole entry): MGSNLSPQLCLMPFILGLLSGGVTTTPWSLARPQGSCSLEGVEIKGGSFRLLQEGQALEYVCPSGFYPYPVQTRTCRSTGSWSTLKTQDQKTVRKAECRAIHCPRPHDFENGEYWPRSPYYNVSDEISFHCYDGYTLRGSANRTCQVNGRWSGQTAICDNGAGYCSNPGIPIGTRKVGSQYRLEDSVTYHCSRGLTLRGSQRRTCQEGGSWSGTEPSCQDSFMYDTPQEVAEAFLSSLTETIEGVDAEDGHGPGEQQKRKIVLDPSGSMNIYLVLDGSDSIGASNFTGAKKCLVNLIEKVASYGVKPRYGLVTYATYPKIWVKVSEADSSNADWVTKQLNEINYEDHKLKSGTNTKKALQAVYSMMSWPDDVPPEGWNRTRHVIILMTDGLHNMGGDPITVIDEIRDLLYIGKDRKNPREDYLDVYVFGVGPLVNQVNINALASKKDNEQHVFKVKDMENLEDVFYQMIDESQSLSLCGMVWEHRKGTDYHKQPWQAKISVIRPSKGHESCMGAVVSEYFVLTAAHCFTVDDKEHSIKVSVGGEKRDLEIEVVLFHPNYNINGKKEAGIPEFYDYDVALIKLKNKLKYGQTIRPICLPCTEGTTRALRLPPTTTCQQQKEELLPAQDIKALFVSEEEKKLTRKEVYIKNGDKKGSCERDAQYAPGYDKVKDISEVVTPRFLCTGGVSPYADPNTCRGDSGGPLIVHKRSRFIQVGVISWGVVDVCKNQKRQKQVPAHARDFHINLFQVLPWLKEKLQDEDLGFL
Beta-lactamase, sequence (P05364 whole entry): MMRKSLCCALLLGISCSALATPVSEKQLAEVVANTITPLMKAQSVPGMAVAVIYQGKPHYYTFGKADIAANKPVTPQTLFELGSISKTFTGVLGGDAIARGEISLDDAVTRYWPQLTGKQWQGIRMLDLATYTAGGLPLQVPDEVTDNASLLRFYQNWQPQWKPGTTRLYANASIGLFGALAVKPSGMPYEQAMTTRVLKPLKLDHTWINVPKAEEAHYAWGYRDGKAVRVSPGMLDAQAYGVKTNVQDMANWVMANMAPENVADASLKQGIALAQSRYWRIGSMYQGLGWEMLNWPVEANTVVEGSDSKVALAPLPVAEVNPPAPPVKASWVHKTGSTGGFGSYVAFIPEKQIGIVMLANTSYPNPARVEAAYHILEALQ
Proline iminopeptidase, sequence (O32449 whole entry): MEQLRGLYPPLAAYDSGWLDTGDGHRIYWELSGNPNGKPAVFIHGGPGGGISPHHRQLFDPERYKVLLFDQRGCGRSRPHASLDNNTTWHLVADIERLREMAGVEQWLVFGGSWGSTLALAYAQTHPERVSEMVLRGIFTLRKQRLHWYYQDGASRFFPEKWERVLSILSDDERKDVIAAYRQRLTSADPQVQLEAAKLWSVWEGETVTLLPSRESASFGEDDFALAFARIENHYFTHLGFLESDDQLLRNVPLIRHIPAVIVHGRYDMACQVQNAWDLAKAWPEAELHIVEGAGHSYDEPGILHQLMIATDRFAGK
Plasma kallikrein, sequence (P03952 20-390 limits assumed): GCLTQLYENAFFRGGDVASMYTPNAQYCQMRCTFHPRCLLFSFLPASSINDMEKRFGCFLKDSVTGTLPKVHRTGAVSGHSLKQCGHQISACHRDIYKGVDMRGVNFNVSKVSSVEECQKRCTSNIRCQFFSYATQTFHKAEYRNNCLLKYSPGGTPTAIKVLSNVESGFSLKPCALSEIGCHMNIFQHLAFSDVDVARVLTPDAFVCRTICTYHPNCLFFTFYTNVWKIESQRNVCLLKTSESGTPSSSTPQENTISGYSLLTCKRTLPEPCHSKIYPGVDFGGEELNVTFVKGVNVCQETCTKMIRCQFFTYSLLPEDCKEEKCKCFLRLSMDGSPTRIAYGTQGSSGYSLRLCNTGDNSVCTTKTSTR
Plasma kallikrein, sequence (P03952 391-638 limits assumed): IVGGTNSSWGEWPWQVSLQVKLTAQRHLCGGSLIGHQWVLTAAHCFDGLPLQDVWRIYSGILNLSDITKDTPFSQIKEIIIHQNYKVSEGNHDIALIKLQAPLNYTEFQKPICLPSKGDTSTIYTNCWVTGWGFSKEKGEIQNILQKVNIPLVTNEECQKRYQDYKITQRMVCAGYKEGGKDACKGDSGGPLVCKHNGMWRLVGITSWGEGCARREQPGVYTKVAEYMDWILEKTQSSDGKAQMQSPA
Plasminogen, sequence (P00747 97-580 limits assumed): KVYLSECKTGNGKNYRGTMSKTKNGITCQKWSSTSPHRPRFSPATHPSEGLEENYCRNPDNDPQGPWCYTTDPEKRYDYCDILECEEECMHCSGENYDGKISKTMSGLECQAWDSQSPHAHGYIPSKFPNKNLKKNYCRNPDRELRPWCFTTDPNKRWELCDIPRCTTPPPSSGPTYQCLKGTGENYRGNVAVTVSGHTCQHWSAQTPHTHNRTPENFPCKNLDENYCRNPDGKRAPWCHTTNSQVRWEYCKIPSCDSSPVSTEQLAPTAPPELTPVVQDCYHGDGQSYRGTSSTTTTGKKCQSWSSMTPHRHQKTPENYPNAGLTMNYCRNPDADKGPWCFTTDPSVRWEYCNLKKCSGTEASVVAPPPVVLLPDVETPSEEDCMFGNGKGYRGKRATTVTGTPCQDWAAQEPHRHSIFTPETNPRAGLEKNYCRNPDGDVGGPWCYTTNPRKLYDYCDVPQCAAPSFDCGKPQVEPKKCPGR
Plasminogen, sequence (P00747 581-810 limits assumed): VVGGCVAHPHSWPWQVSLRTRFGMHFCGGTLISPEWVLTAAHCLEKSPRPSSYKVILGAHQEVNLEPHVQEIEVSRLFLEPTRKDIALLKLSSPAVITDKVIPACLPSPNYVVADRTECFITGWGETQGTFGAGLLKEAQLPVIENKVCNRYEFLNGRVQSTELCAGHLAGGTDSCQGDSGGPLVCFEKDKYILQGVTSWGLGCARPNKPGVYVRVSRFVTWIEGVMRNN

SMILES: N=C(N)N1CCC[C@@H](C[C@H](NC(=O)CN2C(=O)CN(CCCc3ccccc3)C(=O)[C@@H]2Cc2ccccc2)C(=O)c2nccs2)C1
inhibition (Trypsin): 80%

SMILES: CC(C)C(NC(=O)Cn1c(-c2ccccc2)ncc(N)c1=O)C(=O)c1nnc(C(C)(C)C)o1 (racemic)
ED50 (Hamster): 5.1 mg/kg | bioavailability [12]: 50% | Tmax [13]: 36 min

SMILES: CC(C)(C)c1nnc(C(=O)[C@@H]2CCCN2)o1
Ki (Proline iminopeptidase): 500 nM

SMILES: CC(C)C[C@H](NC(=O)OCc1ccccc1)C(=O)NCC(=O)N1CCC[C@H]1C(=O)c1nc2ccccc2s1
IC50 [17]: 200 nM

SMILES: Nc1nc(N)c(CCCC(C(=O)c2nc3ccccc3o2)c2ccc(C(=O)N[C@@H](CCC(=O)O)C(=O)O)cc2)c(=O)[nH]1 (stereo not given in full)
Ki [20]: 600 nM

SMILES: CSCCC(N)C(=O)c1nccs1 (racemic)
IC50 [25]: 19 µM

Results, then the molecule that gave them:

Selectivity ratio [1]: 10 | Selectivity ratio [2]: > 10000 | Selectivity ratio [3]: > 10000 | Selectivity ratio [4]: > 10000
SMILES: O=C(CCCCCc1ccccc1)c1nc2ncccc2o1

Selectivity ratio [5]: > 1000 | Selectivity ratio [6]: > 1000 | bioavailability [7]: 8% | Selectivity ratio [8]: 80 | Ki [9]: 5 nM | Selectivity ratio (Homo sapiens [10]): > 1000 | Selectivity ratio [11]: 35
SMILES: CCOC(=O)N[C@@H](CCCCN)C(=O)c1noc(Cc2ccc(OCCc3ccccc3)cc2)n1

Selectivity ratio [14]: > 1000 | Selectivity ratio [15]: > 1000 | Selectivity ratio [16]: > 1000
SMILES: Cc1cccc(Cc2nnc(C(=O)[C@@H](NC(=O)[C@@H]3CCCN3C(=O)[C@@H](NC(=O)OCc3ccccc3)C(C)C)C(C)C)o2)c1

Ki (Beta-lactamase): 110 µM
SMILES: O=C(Cc1ccccc1)NCC(=O)c1nc(C(=O)O)cs1

Selectivity ratio [18]: > 1000 | Ki [9]: 3 nM | Selectivity ratio (Homo sapiens [10]): > 1000 | Selectivity ratio (Homo sapiens [19]): > 50
SMILES: CCOC(=O)N[C@@H](CCCCN)C(=O)c1noc(Cc2ccc(C(=O)NC3Cc4ccccc4C3)cc2)n1

Selectivity ratio [5]: 30 | Selectivity ratio [18]: > 500 | Selectivity ratio [21]: > 500 | Selectivity ratio [22]: > 500 | Ki [9]: 10 nM | Selectivity ratio [23]: 200
SMILES: CC(=O)N1C[C@H](O)C[C@H]1C(=O)N[C@@H](CCCN=C(N)N)C(=O)c1nc2ccccc2s1

IC50 (Complement factor B): 3.4 µM
SMILES: CC[C@H](C)[C@H](N)C(=O)N[C@H]1CSSC[C@@H](C(=O)N[C@H](C(N)=O)[C@@H](C)O)NC(=O)[C@H](CCCN=C(N)N)NC(=O)[C@H](Cc2cnc[nH]2)NC(=O)[C@H](Cc2cnc[nH]2)NC(=O)CNC(=O)[C@H](Cc2c[nH]c3ccccc23)NC(=O)[C@H](CC(=O)O)NC(=O)[C@H](CCC(N)=O)NC(=O)[C@H](C(C)C)NC(=O)[C@H](C(C)C)NC1=O [COMPSTATIN]

IC50 (Coagulation factor X): 2 nM | IC50 (Plasminogen): 36 nM | IC50 [24]: 29 nM | IC50 (Plasma kallikrein): 13 nM
SMILES: NC(N)=NCCC[C@H](NC(=O)CNC(=O)[C@@H](CCCN=C(N)N)NS(=O)(=O)CCc1ccccc1)C(=O)c1nc2ccccc2o1

Selectivity ratio [18]: 2400 | Selectivity ratio [21]: 23000 | Selectivity ratio [22]: 12000 | Ki [9]: 6.5 nM | IC50 (Platelet): 30 nM | Ratio Ki [26]: 15 | Selectivity ratio [23]: 23000
SMILES: CN[C@H](Cc1ccccc1)C(=O)N1CCC[C@H]1C(=O)N[C@@H](CCCN=C(N)N)C(=O)c1nc2ccccc2s1

Selectivity ratio [1]: 10 | Selectivity ratio [2]: > 10000 | Selectivity ratio [3]: > 10000 | Selectivity ratio [4]: > 10000 | Ki [27]: 6.9 nM
SMILES: O=C(CCCc1ccccc1)c1nc2ncccc2o1
